Results from patent US10730883B2 (AbbVie Inc., priority 2015, dated 2020).
“Also recorded” adds a separate entry of the source. Where a name gives a salt, the structure may show the parent alone.

Legend:
[1] = Hygroscopicity / moisture sorption isotherm of solid state forms; type: physicochemical; details: for hygroscopicity: general statement on the solid state form
From the text: FIG. 6A is a moisture sorption isotherm corresponding to the Amorphous Freebase (via dehydration).
FIG. 6C is a moisture sorption isotherm corresponding to the Tartrate Hydrate.
FIG. 6D is a moisture sorption isotherm corresponding to the Freebase Anhydrate Form D.
In one embodiment, the Tartrate Hydrate has a moisture sorption isotherm profile showing a weight gain of about 1% to about 2% when relative humidity is increased from about 10% relative humidity to about 90% relative humidity at a temperature of 25° C.

[2] = Moisture sorption isotherm; type: physicochemical
Description: Moisture vapor isotherm data were collected with a DVS Advantage (Surface Measurement Systems Ltd, Alperton, United Kingdom). The sample powder (5 mg to 20 mg) was loaded on a tared pan of the DVS Advantage. The moisture sorption isotherm data were collected from 30-0-90-0-30% relative humidity in 10% relative humidity intervals. For each step, the dm/dt criteria was 0.001% over 5 minutes, a minimum dm/dt time of 30 minutes, and a maximum dm/dt of 120 minutes. Data was collected isothermally at 25° C. with a nitrogen flow rate of 200 cm^3/minute. The post DVS sample was kept at approximately 30% relative humidity before PXRD analysis.

[3] = Physical stability of solid state forms (dehydration, desolvation, conversion); type: physicochemical; details: for conversion upon drying: drying / ambient drying; for physical stability: general statement on the solid state form
Description: The Tartrate Hydrate dehydrated into Amorphous at low relative humidity and high temperature, e.g., <10% RH at 25° C. Shearing and compression potentially cause conversion to the amorphous tartrate, and therefore it is not suitable for compressing into tablet form. Additionally, the filter cake solidified during drying, resulting in the need for additional controls during drying.
In addition, Freebase Hydrate Form C can be grown into different particle sizes.
Freebase Anhydrate Form D can be manufactured only when the water content of the crystallization solvent is low, and will convert to Freebase Hydrate Form C in solutions at high water content. The manufacture of Freebase Anhydrate Form D thus requires strict control of water content. Freebase Anhydrate Form D is slow to crystallize, and difficult to manufacture in higher yield. […] Freebase Hydrate Form C will convert to Freebase Anhydrate Form D in a solution of ethyl acetate with low water content.
The resulting amorphous hydrochloride is hygroscopic. Yields obtained for each of the crystalline hydrochlorides generally have been in the 10% to 15% range.

[4] = Stability of isolated solid form at ambient conditions; type: physicochemical; details: after isolation
[5] = Chemical stability of solid state forms in closed vials at controlled temperature and relative humidity; type: physicochemical; details: general statement on the solid state form
Description: The Amorphous Freebase, however, is hygroscopic and can comprise as much as 12% by weight water at 25° C./90% relative humidity. Environmental controls potentially are required to ensure appropriate control of potency and water content during storage, dispensing, and handling of the Amorphous Freebase.
The Tartrate Hydrate, however, potentially will convert to an amorphous tartrate below 10% relative humidity, when heated, or when compressed or under shear.

[6] = Solid state accelerated stability study; type: physicochemical; details: for chemical stability: solid state accelerated stability study
Description: Samples (approximately 1 mg to 2 mg) of the solid state form were weighed into glass vials and tested as described below.

Equilibrium solubility = type: physicochemical
Description: After equilibration, the mixtures were inspected to assure that the amount of excess solid was sufficient to permit re-characterization. […] The pH of aqueous suspensions was determined after equilibration. The solid phase was separated from the liquid phase by centrifugation at 3300 rpm at equilibration temperatures (i.e., 25° C. or 37° C.). The supernatant was then filtered (13 mm Acrodisc® syringe filter with 0.45μ GHP membrane, Pall® Life Sciences, Ann Arbor, Mich.) to discard the initial 2 mL (to saturate filter) and capture the last 1 mL for analysis. The filtrate was diluted as needed for quantification of the material studied by HPLC method (as detailed elsewhere herein). The physical form of the recovered solid was characterized by powder X-ray diffraction to examine whether or not phase change had occurred

[7] = Study 2-Part 2: methotrexate PK alone or with Compound 1 in subjects with RA; type: in vivo; details: human; for CL renal: urine and plasma
Description: Subjects received study drug for 26 consecutive days (Study Days 3 through 28) and a single morning dose of study drug on Study Day 29. […] Subjects were confined to the study site for a total of 10 days—from Day 1 to Day 4 and from Day 27 to Day 31.
Samples quantified below the LLOQ were reported as zero.
Renal clearance (CLr) was calculated as Au,0-12/AUC0-12 at steady state.

[8] = Pharmacokinetic interaction of Compound 1 and methotrexate (dose-normalized AUC); type: in vivo, human; details: FIG. 35B
isolated Treg cells = isolated Treg cells and rheumatoid arthritis synovial fluid; cited from earlier work

With CC[C@@H]1CN(C(=O)NCC(F)(F)F)C[C@@H]1c1cnc2cnc3[nH]ccc3n12 [Freebase Anhydrate Form D, (3S,4R)-3-ethyl-4-(3H-imidazo[1,2-a]pyrrolo[2,3-e]pyrazin-8-yl)-N-(2,2,2-trifluoroethyl)pyrrolidine-1-carboxamide] the “water uptake (reversibly hygroscopic)” value ([1]; 90% RH at 25° C.) was “up to 1.8%”, the hygroscopicity [1] was “reversibly hygroscopic” and the “Moisture sorption (reversibly sorbs up to)” value ([2]; 90% relative humidity at 25° C.) was “up to 1.8%”.

For CC[C@@H]1CN(C(=O)NCC(F)(F)F)C[C@@H]1c1cnc2cnc3[nH]ccc3n12 [Freebase Hydrate Form B, (3S,4R)-3-ethyl-4-(3H-imidazo[1,2-a]pyrrolo[2,3-e]pyrazin-8-yl)-N-(2,2,2-trifluoroethyl)pyrrolidine-1-carboxamide], the conversion upon drying [3] was “convert to the Amorphous Freebase upon drying”, the physical stability [3] was “not physically stable” and the “Stability at ambient conditions” value [4] was “not stable after isolation at ambient conditions and readily dehydrated to the Amorphous Freebase; also recorded: not stable at ambient conditions and readily dehydrates to the Amorphous Freebase”.

In the case of CC[C@@H]1CN(C(=O)NCC(F)(F)F)C[C@@H]1c1cnc2cnc3[nH]ccc3n12 [Freebase Hydrate Form C, (3S,4R)-3-ethyl-4-(3H-imidazo[1,2-a]pyrrolo[2,3-e]pyrazin-8-yl)-N-(2,2,2-trifluoroethyl)pyrrolidine-1-carboxamide], the chemical stability [5] is reported as “excellent chemical stability; also recorded: good chemical stability”, the hygroscopicity [1] is reported as “low hygroscopicity” and the hygroscopicity ([2]; moisture sorption isotherm analysis, 25° C.) is reported as “not hygroscopic”. For the same molecule, the “temperature up to which no dehydration occurs” value ([3]; drying) was “around 110 °C”, the physical stability [3] was “excellent and good” and the “stability under mechanical processing” value ([3]; milling, compression) was “stable under mechanical processing”. For the same molecule, the “Growth of degradation products” value ([6]; 80/75 10 days, 50/75 6 weeks, 40/75 and 30/65 24 weeks, 25/60 12 months (Temp ° C./% RH)) was “no growth of degradation products”, the chemical stability [6] was “acceptable” and the “Change in attributes evaluated (description, crystal form, assay, impurities and water content)” value ([6]; storage conditions of the accelerated stability study) was “No material change”. The Solubility (Equilibrium solubility; FasSIF (pH 6.5 at 37° C.)) was 0.22 mg/mL and the Solubility (Equilibrium solubility; pH 1 at 25° C.) was 55.3 mg/mL.

For CC[C@@H]1CN(C(=O)NCC(F)(F)F)C[C@@H]1c1cnc2cnc3[nH]ccc3n12 [Freebase Solvate Form A, (3S,4R)-3-ethyl-4-(3H-imidazo[1,2-a]pyrrolo[2,3-e]pyrazin-8-yl)-N-(2,2,2-trifluoroethyl)pyrrolidine-1-carboxamide], the conversion upon drying [3] was “convert to the Amorphous Freebase upon drying”, the physical stability [3] was “not physically stable” and the “Stability at ambient conditions” value [4] was “not stable after isolation at ambient conditions and readily dehydrated to the Amorphous Freebase”.

With CC[C@@H]1CN(C(=O)NCC(F)(F)F)C[C@@H]1c1cnc2cnc3[nH]ccc3n12 [Hydrochloride Solvate Form AA, (3S,4R)-3-ethyl-4-(3H-imidazo[1,2-a]pyrrolo[2,3-e]pyrazin-8-yl)-N-(2,2,2-trifluoroethyl)pyrrolidine-1-carboxamide] the conversion upon drying [3] was “convert to an amorphous hydrochloride upon ambient drying”.

For CC[C@@H]1CN(C(=O)NCC(F)(F)F)C[C@@H]1c1cnc2cnc3[nH]ccc3n12 [Hydrochloride Solvate Form BB, (3S,4R)-3-ethyl-4-(3H-imidazo[1,2-a]pyrrolo[2,3-e]pyrazin-8-yl)-N-(2,2,2-trifluoroethyl)pyrrolidine-1-carboxamide], the conversion upon drying [3] was “convert to an amorphous hydrochloride upon ambient drying”.

With CC[C@@H]1CN(C(=O)NCC(F)(F)F)C[C@@H]1c1cnc2cnc3[nH]ccc3n12 [Hydrochloride Solvate Form CC, (3S,4R)-3-ethyl-4-(3H-imidazo[1,2-a]pyrrolo[2,3-e]pyrazin-8-yl)-N-(2,2,2-trifluoroethyl)pyrrolidine-1-carboxamide] the conversion upon drying [3] was “convert to an amorphous hydrochloride upon ambient drying”.

In the case of CC[C@@H]1CN(C(=O)NCC(F)(F)F)C[C@@H]1c1cnc2cnc3[nH]ccc3n12 [L-Maleate Form AAA, (3S,4R)-3-ethyl-4-(3H-imidazo[1,2-a]pyrrolo[2,3-e]pyrazin-8-yl)-N-(2,2,2-trifluoroethyl)pyrrolidine-1-carboxamide], the chemical stability [5] is reported as “less chemically stable”.

In the case of CC[C@@H]1CN(C(=O)NCC(F)(F)F)C[C@@H]1c1cnc2cnc3[nH]ccc3n12 [L-Maleate Form BBB, (3S,4R)-3-ethyl-4-(3H-imidazo[1,2-a]pyrrolo[2,3-e]pyrazin-8-yl)-N-(2,2,2-trifluoroethyl)pyrrolidine-1-carboxamide], the chemical stability [5] is reported as “less chemically stable”, the Degradation on storage ([6]; 50° C./75% relative humidity (open and closed glass vials)) is reported as “degraded to products that were not observed for the Freebase Hydrate Form C or the Tartrate Hydrate” and the chemical stability ([6]; listed as L-maleate salt) is reported as “prone to chemical degradation”.

In the case of CCC1CN(C(=O)NCC(F)(F)F)CC1c1cnc2cnc3[nH]ccc3n12.Cl (stereo not drawn) [amorphous hydrochloride], the hygroscopicity [1] is reported as “hygroscopic”.

CN(Cc1cnc2nc(N)nc(N)c2n1)c1ccc(C(=O)N[C@@H](CCC(=O)O)C(=O)O)cc1 [methotrexate] showed a Tmax ([7]; plasma, 6 mg, Compound 1 6 mg BID Group, Day 1 (alone)) of 2.5 h, a half-life ([7]; plasma, 6 mg, Compound 1 6 mg BID Group, Day 29 (with Compound 1), harmonic mean ± pseudo-SD, read-out: t1/2 (terminal elimination half-life) (converted)) of 282 ± 78 min and a Tmax ([7]; plasma, 12 mg, Compound 1 12 mg BID Group, Day 29 (with Compound 1)) of 2.5 h. The Tmax ([7]; plasma, 24 mg, Compound 1 24 mg BID Group, Day 1 (alone)) was 3 h, the Tmax ([7]; plasma, 24 mg, Compound 1 24 mg BID Group, Day 29 (with Compound 1)) was 2.5 h and the CL renal ([7]; 6 mg, Compound 1 6 mg BID Group, Day 1 (alone)) was 110 mL/min. For the same molecule, the CL renal ([7]; 6 mg, Compound 1 6 mg BID Group, Day 29 (with Compound 1)) was 90.5 mL/min, the CL renal ([7]; 12 mg, Compound 1 12 mg BID Group, Day 1 (alone)) was 102 mL/min and the CL renal ([7]; 12 mg, Compound 1 12 mg BID Group, Day 29 (with Compound 1)) was 79.7 mL/min. It also gave a CL renal ([7]; 24 mg, Compound 1 24 mg BID Group, Day 1 (alone)) of 124 mL/min, a CL renal ([7]; 24 mg, Compound 1 24 mg BID Group, Day 29 (with Compound 1)) of 107 mL/min and a CL renal ([7]; Placebo group, Day 1) of 72 mL/min. For the same molecule, the CL renal ([7]; Placebo group, Day 29) was 96.7 mL/min and the “effect of concomitant Compound 1 administration on methotrexate dose-normalized AUC” value [8] was “lack of effect”.

B1: BT-061: humanized agonistic monoclonal antibody that binds to a unique epitope of human CD4 (antibody, chains of the INN, looked up, V domains shown)
VH: EEQLVESGGGLVKPGGSLRLSCAASGFSFSDCRMYWLRQAPGKGLEWIGVISVKSENYGANYAESVRGRFTISRDDSKNTVYLQMNSLKTEDTAVYYCSASYYRYDVGAWFAYWGQGTLVTVSS
VL: DIVMTQSPDSLAVSLGERATINCRASKSVSTSGYSYIYWYQQKPGQPPKLLIYLASILESGVPDRFSGSGSGTDFTLTISSLQAEDVAVYYCQHSRELPWTFGQGTKVEIK
For B1, the “CD4+ and CD8+ T effector cell proliferation” value (isolated Treg cells) is listed as “suppression”, the “expression of pro-inflammatory cytokines” value (isolated Treg cells) is listed as “reduction” and the “production of the anti-inflammatory cytokine TGFβ” value (isolated Treg cells) is listed as “increase”.
